Source: paper PMC9124818 (Pharmacology Research & Perspectives, 2022)
Read-outs that look alike come from different tables or passages of the source.

How the values were obtained:
[1] = tested on: cultured human hepatocytes; test: Cytotoxicity: LDH release and microscopic evaluation; assay type: cell-based
Procedure: Data were processed with KC4 Signature software (version 3.4, Rev 21, BioTek Instruments, Inc.) and graphed with Microsoft Excel 2003 (Microsoft Corp.). Percent LDH release was calculated based on the following equations: […]

P‐gp = target: T1, P‐gp (Homo sapiens, UniProt P08183); test: Transporter inhibition, bidirectional permeability of digoxin in Caco-2 cells; assay type: in vitro ADME; conditions: Caco-2; probe digoxin 10 µM; read-out: IC50
T1 construct: host or cells: Caco-2
Procedure: The test compound (FFA or nFFA) or the positive control substrate ([…], respectively) was added to the donor chamber. […] Cells were then washed, lysed with scintillation cocktail, and analyzed for the probe substrate with a MicroBeta scintillation counter (PerkinElmer, Hopkinton, MA). Transcellular transporter assay conditions are described in Supplemental Table 1. Calculation of IC50 values was based on bidirectional permeability of probe substrate with and without the inhibitor in MDCKII cells expressing BCRP and in Caco‐2 cells expressing P‐gp, and transporter‐dependent uptake of probe substrate in HEK293 cells expressing all other transporters (Supplemental Table 1).
The net flux for human epithelial colorectal adenocarcinoma cells (Caco-2; P-gp) and MDCKII-BCRP inhibition determination was calculated according to the equation: […]

CYP1A2 = target: T2, CYP1A2 (Homo sapiens, UniProt P05177); test: Direct CYP450 inhibition in human liver microsomes (phenacetin O-dealkylation); conditions: substrate phenacetin
T2 sequence (P05177 1-516): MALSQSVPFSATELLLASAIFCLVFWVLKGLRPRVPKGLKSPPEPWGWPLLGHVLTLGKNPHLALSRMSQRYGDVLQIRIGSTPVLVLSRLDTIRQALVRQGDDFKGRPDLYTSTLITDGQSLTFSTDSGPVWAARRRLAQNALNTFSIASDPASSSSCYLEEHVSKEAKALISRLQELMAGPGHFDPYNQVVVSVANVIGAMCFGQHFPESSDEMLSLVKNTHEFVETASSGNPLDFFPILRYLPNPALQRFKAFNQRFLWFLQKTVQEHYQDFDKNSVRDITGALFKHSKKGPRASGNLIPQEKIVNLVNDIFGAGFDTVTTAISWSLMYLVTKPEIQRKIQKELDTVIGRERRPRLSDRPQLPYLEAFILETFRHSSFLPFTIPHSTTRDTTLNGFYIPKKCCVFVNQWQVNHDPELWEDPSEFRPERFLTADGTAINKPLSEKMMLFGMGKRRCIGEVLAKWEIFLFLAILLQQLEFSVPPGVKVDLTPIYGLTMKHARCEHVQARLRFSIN
Description: (§5) A mixed‐gender pool of 200 individual human liver microsomal samples was used.
(§6) This LIMS utilizes the Levenberg-Marquardt algorithm to perform nonlinear regression fitting of the data to the following 4-parameter sigmoidal-logistic IC50 equation:
(§7) As percent of control values are utilized, the Min is set to 0 and the Max is set to 100 (or other values, as appropriate). […] Therefore, when an IC50 value falls outside the concentration range studied, the IC50 values are reported to be greater than the highest concentrations of test article evaluated.

CYP3A4 mRNA = test: in vitro; conditions: for Fold‐change method: Fold change: highest dose tested (40 µM fenfluramine, 50 µM norfenfluramine); for Fold‐change method: % of control: percent of positive control induction of mRNA; for Basic kinetic model: Emax (fold) / EC50: ± standard error; for Basic kinetic model: Emax (fold): fit of fold‐change −1 values; for EC50: read-out: Basic kinetic model: EC50
Procedure: (§1) Cells were then harvested to isolate RNA, which was analyzed by quantitative reverse transcription‐polymerase chain reaction (qRT‐PCR) for induction of CYP1A2, CYP2B6, and CYP3A4 mRNA levels. Total RNA was phase extracted with TRIzol followed by purification with an RNeasy Mini Kit (Qiagen Inc., Germantown, MD). Quantitative PCR was performed in triplicate with a 7900HT Fast Real Time PCR System, an Applied Biosystems Universal Master Mix, and TaqMan® Gene Expression Assays. The quantity of target cDNA relative to control cDNA (GAPDH) was determined by the ΔΔCT method (Applied Biosystems User Bulletin #2). Relative quantitation measures the change in mRNA expression in a test sample relative to that in the control sample (i.e., DMSO). This method assumes that the efficiency of target amplification and the efficiency of endogenous control amplification are approximately equal.
(§2) mRNA assessment was conducted using a quantitative reverse transcription-polymerase chain reaction (qRT-PCR) according to the Applied Biosystems protocol. Each PCR was performed in triplicate. A Primer Mix was prepared for each Gene Expression assay. A typical Primer Mix contained TaqMan Fast Advanced Master Mix (1X), Gene Expression Assay (1X, 900 nM forward and reverse primers) and ribonuclease (RNase)-free water. The Reaction Mix was prepared by adding the Primer Mix to cDNA. A percentage of samples (no less than 10%) included NACs. […] The relative quantity of the target cDNA compared with that of the control cDNA (GAPDH) was determined by the ΔΔCt method (Applied Biosystems User Bulletin #2). Relative quantitation measures the change in mRNA expression in a test sample relative to that in a control sample (eg, dimethyl sulfoxide [DMSO]). This method assumes that the efficiency of the target amplification and the efficiency of the endogenous control amplification are approximately equal.
(§3) This software analyzes relative gene expression using the comparative Ct method (ΔΔCt), which relates the PCR signal of the target transcript to the PCR signal of the target in an untreated control. Both the treated sample and the untreated control signals are normalized to the endogenous control (GAPDH), for which expression is not affected by treatment and expression is constant throughout the tissue being tested.
(§4) The level of mRNA expression relative to the positive control was calculated as follows: […]

CYP2B6 mRNA = test: CYP450 induction in cultured human hepatocytes, mRNA by qRT-PCR; assay type: cell-based; conditions: for Fold‐change method: Fold change: highest dose tested (40 µM fenfluramine, 50 µM norfenfluramine); for Basic kinetic model: R3: per FDA Guidance (2020); for Fold‐change method: % of control: percent of positive control induction of mRNA; for Basic kinetic model: Emax (fold) / EC50: ± standard error; for Basic kinetic model: Emax (fold): fit of fold‐change −1 values; for EC50: read-out: Basic kinetic model: EC50
Procedure: as §1, §2, §3, §4

[2] = Pharmacokinetic input parameters of the mechanistic static model (population pharmacokinetics)
CYP2C19 = CYP2C19 (Homo sapiens, UniProt P33261); test: Direct CYP450 inhibition in human liver microsomes (S-mephenytoin 4'-hydroxylation); conditions: substrate S-mephenytoin
Description: as §5, §6, §7

[3] = direct inhibition, human liver microsomes

Chain of CYP2C19 (P33261 whole entry): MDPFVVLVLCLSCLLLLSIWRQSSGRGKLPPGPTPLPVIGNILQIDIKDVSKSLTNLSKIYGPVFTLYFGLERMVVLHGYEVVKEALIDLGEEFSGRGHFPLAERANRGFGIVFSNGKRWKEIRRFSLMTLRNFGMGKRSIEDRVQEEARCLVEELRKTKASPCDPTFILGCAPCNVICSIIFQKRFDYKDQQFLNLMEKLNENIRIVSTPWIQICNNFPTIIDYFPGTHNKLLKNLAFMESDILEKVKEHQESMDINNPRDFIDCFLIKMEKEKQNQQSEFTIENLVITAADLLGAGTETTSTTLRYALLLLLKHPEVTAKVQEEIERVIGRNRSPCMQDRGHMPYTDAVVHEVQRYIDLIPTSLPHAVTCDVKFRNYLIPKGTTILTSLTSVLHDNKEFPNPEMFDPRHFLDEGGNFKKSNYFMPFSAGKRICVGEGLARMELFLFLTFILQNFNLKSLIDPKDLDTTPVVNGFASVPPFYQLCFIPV
T1 sequence (P08183 whole entry): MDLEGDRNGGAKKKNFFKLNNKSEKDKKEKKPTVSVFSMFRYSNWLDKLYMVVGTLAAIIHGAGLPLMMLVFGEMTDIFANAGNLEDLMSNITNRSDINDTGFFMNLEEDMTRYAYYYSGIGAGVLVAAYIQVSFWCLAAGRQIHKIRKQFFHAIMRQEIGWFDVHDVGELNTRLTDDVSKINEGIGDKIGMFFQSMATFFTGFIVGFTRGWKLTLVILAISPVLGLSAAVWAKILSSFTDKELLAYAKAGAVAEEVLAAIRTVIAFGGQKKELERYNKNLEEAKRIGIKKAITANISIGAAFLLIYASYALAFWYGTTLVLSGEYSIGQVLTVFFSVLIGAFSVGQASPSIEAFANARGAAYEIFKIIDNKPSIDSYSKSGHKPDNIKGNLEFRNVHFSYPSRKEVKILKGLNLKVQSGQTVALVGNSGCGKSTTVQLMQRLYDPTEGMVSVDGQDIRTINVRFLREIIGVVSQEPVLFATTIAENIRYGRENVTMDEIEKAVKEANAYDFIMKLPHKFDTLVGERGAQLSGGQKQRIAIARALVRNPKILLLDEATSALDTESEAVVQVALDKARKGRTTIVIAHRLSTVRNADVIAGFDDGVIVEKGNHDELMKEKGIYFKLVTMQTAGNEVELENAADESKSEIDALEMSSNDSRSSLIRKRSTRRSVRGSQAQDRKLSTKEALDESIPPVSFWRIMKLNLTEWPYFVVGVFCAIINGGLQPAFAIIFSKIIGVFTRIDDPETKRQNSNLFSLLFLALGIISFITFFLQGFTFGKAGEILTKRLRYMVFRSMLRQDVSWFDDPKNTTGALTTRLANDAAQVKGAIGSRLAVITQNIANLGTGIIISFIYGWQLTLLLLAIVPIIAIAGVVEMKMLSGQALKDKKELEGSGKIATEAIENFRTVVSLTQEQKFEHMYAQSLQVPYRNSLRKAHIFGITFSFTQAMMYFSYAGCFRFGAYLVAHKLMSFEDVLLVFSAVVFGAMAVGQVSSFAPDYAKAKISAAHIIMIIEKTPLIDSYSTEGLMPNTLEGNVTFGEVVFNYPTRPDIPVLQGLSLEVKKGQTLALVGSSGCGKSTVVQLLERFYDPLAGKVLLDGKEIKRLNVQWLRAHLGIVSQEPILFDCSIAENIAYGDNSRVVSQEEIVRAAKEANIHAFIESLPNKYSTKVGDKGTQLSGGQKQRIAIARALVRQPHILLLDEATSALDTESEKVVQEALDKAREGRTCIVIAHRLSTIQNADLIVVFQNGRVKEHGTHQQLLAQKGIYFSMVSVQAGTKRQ

In the case of `CC(N)Cc1cccc(C(F)(F)F)c1.Cl` (centres unmarked) [nFFA, [1‐(3‐trifluoromethyl)phenyl]propan‐2‐amine hydrochloride], the hepatocyte morphology ([1]; up to 40 μM FFA or 50 μM nFFA for 3 consecutive days) is reported as “No morphological changes”, the LDH release ([1]; up to 40 μM FFA or 50 μM nFFA, all three hepatocyte cultures) is reported as at most 13.8 % positive control and the IC50 (P‐gp) is reported as over 50 µM. For the same molecule, the IC50 (CYP1A2; [3]) was over 100 µM, the “Basic model: Potential for clinical inhibition” value (CYP1A2) was “No (Potential to inhibit if R1 ≥ 1.02)” and the “Static mechanistic model: Potential for clinical inhibition” value (CYP1A2) was “No (Potential to inhibit if AUCR ≥ 1.25)”. The “Basic kinetic model: Potential to induce” value (CYP3A4 mRNA; hepatocytes HC7‐8) was “Yes”, the “Basic kinetic model: R3” value (CYP3A4 mRNA; hepatocytes HC7‐8) was 0.79 and the “Fold‐change method: Potential to induce” value (CYP3A4 mRNA; hepatocytes HC7‐8) was “Yes”. The “Static mechanistic model: Potential to induce” value (CYP3A4 mRNA; hepatocytes HC7‐8) was “No (AUCR <0.8 to denote induction)”, the “Fold‐change method: Fold change” value (CYP3A4 mRNA; hepatocytes HC7‐8) was 4.91 fold and the “Fold‐change method: % of control” value (CYP3A4 mRNA; hepatocytes HC7‐8) was 3.68%. The “Basic kinetic model: Emax (fold)” value (CYP3A4 mRNA; hepatocytes HC7‐8) was 3.92 ± 0.048 fold, the “Basic kinetic model: Potential to induce” value (CYP3A4 mRNA; hepatocytes HC10‐8) was “No” and the “Basic kinetic model: R3” value (CYP3A4 mRNA; hepatocytes HC10‐8) was 0.86. The “Fold‐change method: Potential to induce” value (CYP3A4 mRNA; hepatocytes HC10‐8) was “Yes”, the “Static mechanistic model: Potential to induce” value (CYP3A4 mRNA; hepatocytes HC10‐8) was “No (AUCR <0.8 to denote induction)” and the “Fold‐change method: Fold change” value (CYP3A4 mRNA; hepatocytes HC10‐8) was 5.75 fold. For the same molecule, the “Fold‐change method: % of control” value (CYP3A4 mRNA; hepatocytes HC10‐8) was 15.30%, the “Basic kinetic model: Emax (fold)” value (CYP3A4 mRNA; hepatocytes HC10‐8) was 6.95 ± 1.0 fold and the “Basic kinetic model: Potential to induce” value (CYP3A4 mRNA; hepatocytes HC10‐10) was “No”. The “Basic kinetic model: R3” value (CYP3A4 mRNA; hepatocytes HC10‐10) was 0.84, the “Fold‐change method: Potential to induce” value (CYP3A4 mRNA; hepatocytes HC10‐10) was “Yes” and the “Static mechanistic model: Potential to induce” value (CYP3A4 mRNA; hepatocytes HC10‐10) was “No (AUCR <0.8 to denote induction)”. For the same molecule, the “Fold‐change method: Fold change” value (CYP3A4 mRNA; hepatocytes HC10‐10) was 4.57 fold, the “Fold‐change method: % of control” value (CYP3A4 mRNA; hepatocytes HC10‐10) was 4.85% and the “Basic kinetic model: Emax (fold)” value (CYP3A4 mRNA; hepatocytes HC10‐10) was 3.61 ± 0.40 fold. For the same molecule, the EC50 (CYP3A4 mRNA; hepatocytes HC7‐8) was 12.9 ± 0.38 µM, the EC50 (CYP3A4 mRNA; hepatocytes HC10‐8) was 37.8 ± 5.6 µM and the EC50 (CYP3A4 mRNA; hepatocytes HC10‐10) was 17.1 ± 3.9 µM. For the same molecule, the “CYP2B6 induction (abstract)” value (CYP2B6 mRNA; cultured human hepatocytes) was “up to 2.0 fold”, the “Basic kinetic model: Potential to induce” value (CYP2B6 mRNA; hepatocytes HC7‐8) was “No” and the “Fold‐change method: Potential to induce” value (CYP2B6 mRNA; hepatocytes HC7‐8) was “Yes”. The “Static mechanistic model: Potential to induce” value (CYP2B6 mRNA; hepatocytes HC7‐8) was “No (AUCR <0.8 to denote induction)”, the “Fold‐change method: Fold change” value (CYP2B6 mRNA; hepatocytes HC7‐8) was 2.15 fold and the “Basic kinetic model: R3” value (CYP2B6 mRNA; hepatocytes HC7‐8) was 0.92. The “Fold‐change method: % of control” value (CYP2B6 mRNA; hepatocytes HC7‐8) was 10.60%, the “Basic kinetic model: Emax (fold)” value (CYP2B6 mRNA; hepatocytes HC7‐8) was 1.14 ± 0.083 fold and the EC50 (CYP2B6 mRNA; hepatocytes HC7‐8) was 10.8 ± 2.3 µM. For the same molecule, the “Basic kinetic model: Potential to induce” value (CYP2B6 mRNA; hepatocytes HC10‐8) was “No”, the “Fold‐change method: Potential to induce” value (CYP2B6 mRNA; hepatocytes HC10‐8) was “Yes” and the “Static mechanistic model: Potential to induce” value (CYP2B6 mRNA; hepatocytes HC10‐8) was “No (AUCR <0.8 to denote induction)”. For the same molecule, the “Fold‐change method: Fold change” value (CYP2B6 mRNA; hepatocytes HC10‐8) was 3.01 fold, the “Basic kinetic model: R3” value (CYP2B6 mRNA; hepatocytes HC10‐8) was 0.93 and the “Fold‐change method: % of control” value (CYP2B6 mRNA; hepatocytes HC10‐8) was 21.20%. The “Basic kinetic model: Emax (fold)” value (CYP2B6 mRNA; hepatocytes HC10‐8) was 2.08 ± 0.197 fold, the EC50 (CYP2B6 mRNA; hepatocytes HC10‐8) was 26.4 ± 2.9 µM and the “Basic kinetic model: Potential to induce” value (CYP2B6 mRNA; hepatocytes HC10‐10) was “No”. The “Fold‐change method: Potential to induce” value (CYP2B6 mRNA; hepatocytes HC10‐10) was “Yes”, the “Static mechanistic model: Potential to induce” value (CYP2B6 mRNA; hepatocytes HC10‐10) was “No (AUCR <0.8 to denote induction)” and the “Fold‐change method: Fold change” value (CYP2B6 mRNA; hepatocytes HC10‐10) was 2.54 fold. For the same molecule, the “Basic kinetic model: R3” value (CYP2B6 mRNA; hepatocytes HC10‐10) was 0.88, the “Fold‐change method: % of control” value (CYP2B6 mRNA; hepatocytes HC10‐10) was 21.60% and the “Basic kinetic model: Emax (fold)” value (CYP2B6 mRNA; hepatocytes HC10‐10) was 1.36 ± 0.11 fold. For the same molecule, the EC50 (CYP2B6 mRNA; hepatocytes HC10‐10) was 8.81 ± 1.6 µM, the “Portal inlet [I]h” value ([2]; calculated as (Imax + (Fa × Fg × ka × molar dose) / Qh) / Rb) was 0.094 µM and the “Cmax, unbound” value ([2]; calculated as Cmax, total (ng/mL)/MW * fu) was 0.094 µM. The IC50 (CYP2C19; [3]) was over 100 µM, the “Inhibition (%)” value (CYP2C19; direct inhibition, FFA up to 60 µM, nFFA up to 100 µM) was 2.9% and the “Basic model: Potential for clinical inhibition” value (CYP2C19) was “No (Potential to inhibit if R1 ≥ 1.02)”. The “Static mechanistic model: Potential for clinical inhibition” value (CYP2C19) was “No (Potential to inhibit if AUCR ≥ 1.25)” and the “Basic model: R1” value (CYP2C19; R1 = 1 + (Imax,u/Ki,u)) was 1.00.
